Results reported in patent US4845233A, “Imidazolin-2-ones” (IPRX, Inc., priority 1987, dated 1989).

Key:
[1] = in vitro transdermal penetration of indomethacin from petrolatum ointment through shed snake skin, vertical diffusion cell; format: in vitro ADME, Elaphe obsoleta (black rat snake); details: for Relative Penetration: 5% enhancer in ointment, indomethacin, slope relative to Azone = 100%
Experimental: Ointments were prepared by mixing 1% indomethacin, 5% dermal penetration enhancer and 94% petrolatum at 55°-60° C. to give a homogeneous dispersion of indomethacin. In the cases where the enhancers are liquid the indomethacin and the enhancer were first mixed well and then followed by the incorporation of the petrolatum. The mixture was melted at 55°-60° C. and stirred until a homogeneous ointment was obtained. For low melting enhancers, the enhancer and the indomethacin were melted together and mixed in a water-bath followed by the incorporation of petrolatum. For high melting enhancers, it was necessary to mix the components in an agate mortar.
A whole shed snake skin from the molt of adult Elaphe obsoleta (black rat snake) was obtained from the Animal Care Unit of the University of Kansas. Only the dorsal side of the shed snake skin was used for in vitro penetration studies. The head and tail sections of the snake skin was removed and the remainder of the skin was cut randomly into sections of approximately 2 inches by 2 inches. Each piece of snake skin was hydrated overnight by first soaking the skin in water (about 5 to 10 min) until it could be stretched and then it was placed on a plastic pan which held some water. The pan was floated on a water-bath of 32° C. overnight.
Approximately 30 mg of ointment as prepared as described in Example 23 was smeared evenly on an area of the 2"×2" snake skin. The ointment was smeared into an essentially circular area approximately 1.77 cm^2 and having a diameter of approximately 15 mm. The snake skin was then mounted on top of the receptor cell of a verticle diffusion cell assembly in which a small magnetic bar was inserted and filled with an isotonic buffer. A rubber o-ring was placed on top of the skin followed by the placement of the donor cell. The two cells were clamped together and transferred to a water-bath (32° C.) which had several magnetic stirrers placed underneath to stir the contents of the diffusion cells. Samples from the cells were withdrawn periodically by gravity by inputing fresh isotonic buffer into the cells inlets. The first five drops were discarded and the following four drops were collected for analysis. These nine drops of sample solution were approximately equivalent to about 0.20 ml.
The samples were analyzed for the concentration of indomethacin using either a Spectroflow 783 programmable absorbance detector or a Perkin-Elmer ISS-100 HPLC apparatus with a Perkin-Elmer LC9 UV spectrophotometric detector and a Perkin-Elmer ISS-100 automatic sampler with the detection wavelength set at 260 nm. A reverse phase column, RP-8 Spheri-5, 4.6×100 mm and a guard tube OD-GU, purchased from Brownlee Labs, were used in conjunction with the HPLC system. The flow rate was 1.0 ml/min and the solvent system was a mixture of acetonitrile (50%) and a 0.01M phosphate buffer (pH 3.0) (50%).
The concentration in each sample was interpreted from a standard curve which was obtained by plotting the peak areas obtained from HPL chromatograms versus four different standard solutions of indomethacin. The standard curves were linear over a range of concentrations from 2.5 to 10 ug/ml. The receptor cell volume was calibrated by weighing the amount of water in the cell. The first sample needs no concentration correction. However, the concentration in the subsequent samples can be corrected by the following equation [formula] where xi is a member of microgram of indomethacin in the i^th sample. Also, the volume withdrawn for each sampling is about 0.20 ml. Yi is the concentration correction for i-1 sample.
The foregoing results were obtained by using 5% of the transdermal penetration enhancer in the ointment. […] Thus, Table III primarily reflects the transdermal penetration data of […] from ointments of 94% petrolatum and 5% enhancer. In Run No. 14, Azone was selected as the standard for comparison since it is claimed to be an excellent enhancer although it is too toxic. […]

[2] = intraperitoneal; cited from earlier work
[3] = in vitro transdermal penetration of indomethacin from petrolatum ointment through shed snake skin, vertical diffusion cell; format: in vitro ADME, Elaphe obsoleta (black rat snake); details: * 10% enhancer in ointment, slope relative to Azone = 100%
Swiss white mice [4] = details: mouse, in vivo, sc, 1000 mg/kg
Swiss white mice [5] = assay: Chronic Toxicity Study, subcutaneous daily for 14 days; format: in vivo; details: 1000 mg/Kg daily for 14 days
Experimental: The compound identified in Example 25 and represented as Run No. 3 in Table III, was also evaluated for chronic toxicity. Six Swiss white mice were injected subcutaneously at a dose of 1000 mg/Kg daily for 14 days. A sample dispersion of 400 mg/4.0 ml was prepared by dispersing the soft enhancer in a powder form in a 2% Tween 80 saline solution. The homogeneous dispersion was obtained by vortexing the material in a conical flask in which a plastic ball was placed. Sample dispersion was prepared alternative day in order to avoid serious contamination. Prior to injection the dispersion was shaken and withdrawn into a sterile graduated 1 cc TB syring (readable to 0.05 ml). Sterile hypodermic needles (25.4 mm) were required for injecting the dispersion. The control mice were injected an equivalent volume of the 2% Tween 80 suspension in saline. The suspension was prepared on an alternative day to avoid serious contamination. […] Two mice injected with the sample and one from the control were sacrificed and dissected for examination. For the control mouse, there was no obvious damage to the tissue and the internal organs. […] The mice were maintained for a period of 39 days during which time one mouse was sacrificed to check for the presence of the yellowish material.

Compound: 1-Methyl-4-imidazolin-2-one-3-propylenedodecanoate [Run No. 5]
- penetration enhancement of indomethacin versus Azone (FIG. 1) ([1]; within the first 24 hours): well above that of the standard Azone

Compound: CCCCCCCCCCCCN1CCCCCC1=O [Azone, 1-Dodecylazacycloheptane-2-One, reference compound]
- Relative Penetration [1]: 100%
- LD50 [2]: approximately 232 mg/kg

Compound: CCCCCCCCCCCCCC(=O)OC(C)n1ccn(CC)c1=O (stereo not drawn) [Run No. 7, 1-ethyl-4-imidazolin-2-one-3-α-ethyltetradecanoate]
- Relative Penetration [1]: 50%

Compound: CCCCCCCCCCOC(=O)OCn1ccn(C)c1=O [Run No. 9]
- Relative Penetration [1]: 15%

Compound: CCCCCCCCCCCCCCOC(=O)OCn1ccn(C)c1=O [Run No. 10]
- Relative Penetration [1]: 10%

Compound: CCCCCCCCCCCC(=O)OCn1ccn(C)c1=O [Run No. 12, 1-Methyl-4-imidazolin-2-one-3-methylenedodecanoate]
- Relative Penetration [3]: 20%
- Relative Penetration [1]: 10%

Compound: CCCCCCCCCCCC(=O)OC(C)Cn1ccn(C)c1=O (centres unmarked) [compound 1]
- Relative Penetration [1]: 120-200%

Compound: CCCCCCCCCCCCCC(=O)OC(C)Cn1ccn(C)c1=O (centres unmarked) [compound 2]
- Relative Penetration [1]: 70%

Compound: CCCCCCCCCCCCCC(=O)OC(C)n1ccn(C)c1=O (centres unmarked) [compound 3]
- Relative Penetration [3]: 50%
- Relative Penetration [1]: 80-100%
- damage to internal organs and tissue at the injection site (dissection) (Swiss white mice [4]): no obvious damage to the internal organs and tissue at the injection site
- damage to internal organs (dissection) (Swiss white mice [5]): no obvious damage to the internal organs was seen
- injection site finding (dissection) (Swiss white mice [5]): a substantial amount of yellowish material was found on the injection site
- yellowish material at injection site at follow-up (Swiss white mice [5]; after 39 days): The yellowish material disappeared after 39 days

Compound: CCCCCCCCCCCC(=O)OC(C)n1ccn(C)c1=O (centres unmarked) [compound 4]
- Relative Penetration [3]: 40%
- Relative Penetration [1]: 60%

Compound: CCCCCCCCCCCC(=O)OCCCn1ccn(C)c1=O [compound 5]
- Relative Penetration [1]: 100%

Compound: CCCCCCCCCCCC(=O)OCCn1ccn(C)c1=O [compound 6]
- Relative Penetration [1]: 60%

Compound: CCCCCCCCCCCCOC(=O)OCn1ccn(C)c1=O [compound 8]
- Relative Penetration [1]: 50%

Compound: CCCCCCCCCC(=O)OCn1ccn(C)c1=O [compound 11]
- Relative Penetration [1]: 10%

Compound: CCCCCCCCCC(=O)OC(C)Cn1ccn(C)c1=O (centres unmarked) [compound 13]
- Relative Penetration [1]: 50%
